Source: the kinase profiling compilation of Christmann-Franck et al. (2016)

Legend:
Assay in all cases: radiometric filter-binding kinase assay
[1] = test system: AKT1 (human), P31749 [S473D]
[2] = molecular target: CHEK2 (human) (UniProt O96017)
[3] = molecular target: CSNK1D (human) (UniProt P48730)
[4] = molecular target: CaMK1 (human) (UniProt Q14012)
[5] = molecular target: DYRK1A (human) (UniProt Q13627)
[6] = molecular target: DYRK3 (human) (UniProt O43781)
[7] = molecular target: EPHB2 (human) (UniProt P29323)
[8] = molecular target: IKBKB (human) (UniProt O14920)
[9] = molecular target: IKBKE (human) (UniProt Q14164)
[10] = molecular target: IRAK4 (human) (UniProt Q9NWZ3)
[11] = molecular target: JAK2 JH1 JH2 (human) (UniProt O60674)
Chain of JAK2 JH1 JH2 (human) (O60674 whole entry, looked up): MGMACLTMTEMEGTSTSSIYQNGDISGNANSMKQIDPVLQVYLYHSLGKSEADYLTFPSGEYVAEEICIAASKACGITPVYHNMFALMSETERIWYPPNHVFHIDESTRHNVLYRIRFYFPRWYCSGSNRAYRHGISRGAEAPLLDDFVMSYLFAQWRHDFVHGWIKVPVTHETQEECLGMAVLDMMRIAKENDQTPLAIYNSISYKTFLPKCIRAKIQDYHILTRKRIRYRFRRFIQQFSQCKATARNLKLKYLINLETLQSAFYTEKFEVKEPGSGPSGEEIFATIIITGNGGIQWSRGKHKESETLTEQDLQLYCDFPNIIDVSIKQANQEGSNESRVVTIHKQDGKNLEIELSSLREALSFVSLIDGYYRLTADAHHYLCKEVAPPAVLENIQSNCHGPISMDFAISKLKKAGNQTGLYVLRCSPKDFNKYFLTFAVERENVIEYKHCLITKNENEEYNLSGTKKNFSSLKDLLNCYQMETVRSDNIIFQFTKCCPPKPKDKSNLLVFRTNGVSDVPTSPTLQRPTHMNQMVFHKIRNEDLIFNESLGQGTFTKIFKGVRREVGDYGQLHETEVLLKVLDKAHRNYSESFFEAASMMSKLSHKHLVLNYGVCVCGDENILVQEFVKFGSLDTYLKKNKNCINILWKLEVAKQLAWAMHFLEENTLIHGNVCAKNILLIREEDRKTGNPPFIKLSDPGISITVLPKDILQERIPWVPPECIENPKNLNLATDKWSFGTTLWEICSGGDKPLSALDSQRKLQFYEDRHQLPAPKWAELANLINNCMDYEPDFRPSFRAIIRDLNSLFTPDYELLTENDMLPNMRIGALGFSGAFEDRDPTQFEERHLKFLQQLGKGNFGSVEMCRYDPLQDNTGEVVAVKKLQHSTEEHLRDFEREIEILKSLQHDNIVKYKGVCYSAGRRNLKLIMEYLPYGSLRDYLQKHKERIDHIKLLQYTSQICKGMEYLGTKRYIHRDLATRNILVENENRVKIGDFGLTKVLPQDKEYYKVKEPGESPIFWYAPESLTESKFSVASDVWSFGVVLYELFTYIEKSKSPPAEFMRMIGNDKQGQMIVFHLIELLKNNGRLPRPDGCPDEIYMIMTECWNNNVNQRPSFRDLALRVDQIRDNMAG

[12] = molecular target: MAP2K1 (human) (UniProt Q02750)
[13] = molecular target: MAP3K11 (human) (UniProt Q16584)
[14] = molecular target: MAPK14 (human) (UniProt Q16539)
[15] = molecular target: MAPK3 (human) (UniProt P27361)
Chain of MAPK3 (human) (P27361 whole entry, looked up): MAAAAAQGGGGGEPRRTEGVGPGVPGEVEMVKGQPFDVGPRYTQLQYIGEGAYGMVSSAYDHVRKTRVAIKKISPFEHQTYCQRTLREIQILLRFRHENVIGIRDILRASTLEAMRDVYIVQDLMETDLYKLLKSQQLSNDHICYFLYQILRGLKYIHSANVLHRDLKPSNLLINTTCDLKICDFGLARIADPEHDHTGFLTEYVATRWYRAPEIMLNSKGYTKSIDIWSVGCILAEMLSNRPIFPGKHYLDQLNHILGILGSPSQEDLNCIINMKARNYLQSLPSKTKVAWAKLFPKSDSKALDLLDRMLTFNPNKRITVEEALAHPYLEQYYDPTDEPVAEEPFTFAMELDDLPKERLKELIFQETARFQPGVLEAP

[16] = molecular target: MAPK8 (human) (UniProt P45983)
Chain of MAPK8 (human) (P45983 whole entry, looked up): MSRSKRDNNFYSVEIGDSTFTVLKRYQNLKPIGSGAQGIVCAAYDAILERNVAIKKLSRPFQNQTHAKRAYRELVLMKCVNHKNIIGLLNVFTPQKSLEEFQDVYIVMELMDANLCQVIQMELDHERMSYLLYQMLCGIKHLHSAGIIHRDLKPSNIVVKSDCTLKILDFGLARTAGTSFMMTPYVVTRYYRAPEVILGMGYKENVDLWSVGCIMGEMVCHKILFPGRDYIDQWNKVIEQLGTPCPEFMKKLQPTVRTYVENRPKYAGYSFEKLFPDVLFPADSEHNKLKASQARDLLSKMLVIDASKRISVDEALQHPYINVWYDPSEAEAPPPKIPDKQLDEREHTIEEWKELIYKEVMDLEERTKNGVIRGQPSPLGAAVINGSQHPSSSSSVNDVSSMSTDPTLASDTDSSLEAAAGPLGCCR

[17] = molecular target: MAPK9 (human) (UniProt P45984)
[18] = molecular target: MAPKAPK2 (human) (UniProt P49137)
[19] = molecular target: MARK1 (human) (UniProt Q9P0L2)
Chain of MARK1 (human) (Q9P0L2 whole entry, looked up): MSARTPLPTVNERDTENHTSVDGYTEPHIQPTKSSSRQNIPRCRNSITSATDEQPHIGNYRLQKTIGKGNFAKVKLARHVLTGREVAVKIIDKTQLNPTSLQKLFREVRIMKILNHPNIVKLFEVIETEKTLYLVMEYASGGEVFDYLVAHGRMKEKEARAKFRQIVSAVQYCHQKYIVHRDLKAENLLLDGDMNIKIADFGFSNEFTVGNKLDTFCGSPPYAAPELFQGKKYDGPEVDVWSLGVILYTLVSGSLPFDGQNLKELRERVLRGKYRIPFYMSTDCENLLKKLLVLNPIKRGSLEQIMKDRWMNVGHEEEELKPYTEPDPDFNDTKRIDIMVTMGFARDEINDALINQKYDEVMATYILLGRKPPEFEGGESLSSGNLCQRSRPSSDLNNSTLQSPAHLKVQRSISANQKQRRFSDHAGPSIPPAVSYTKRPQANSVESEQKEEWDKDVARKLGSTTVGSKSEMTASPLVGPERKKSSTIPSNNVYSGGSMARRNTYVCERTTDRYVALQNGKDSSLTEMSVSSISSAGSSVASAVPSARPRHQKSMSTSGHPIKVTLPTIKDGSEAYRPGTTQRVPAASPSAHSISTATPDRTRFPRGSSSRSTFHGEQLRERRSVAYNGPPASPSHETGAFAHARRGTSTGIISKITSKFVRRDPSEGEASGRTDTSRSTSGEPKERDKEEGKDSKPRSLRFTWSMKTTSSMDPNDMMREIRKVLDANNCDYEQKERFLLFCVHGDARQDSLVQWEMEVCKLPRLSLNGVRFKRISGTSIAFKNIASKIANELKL

[20] = molecular target: MARK2 (human) (UniProt Q7KZI7)
Chain of MARK2 (human) (Q7KZI7 whole entry, looked up): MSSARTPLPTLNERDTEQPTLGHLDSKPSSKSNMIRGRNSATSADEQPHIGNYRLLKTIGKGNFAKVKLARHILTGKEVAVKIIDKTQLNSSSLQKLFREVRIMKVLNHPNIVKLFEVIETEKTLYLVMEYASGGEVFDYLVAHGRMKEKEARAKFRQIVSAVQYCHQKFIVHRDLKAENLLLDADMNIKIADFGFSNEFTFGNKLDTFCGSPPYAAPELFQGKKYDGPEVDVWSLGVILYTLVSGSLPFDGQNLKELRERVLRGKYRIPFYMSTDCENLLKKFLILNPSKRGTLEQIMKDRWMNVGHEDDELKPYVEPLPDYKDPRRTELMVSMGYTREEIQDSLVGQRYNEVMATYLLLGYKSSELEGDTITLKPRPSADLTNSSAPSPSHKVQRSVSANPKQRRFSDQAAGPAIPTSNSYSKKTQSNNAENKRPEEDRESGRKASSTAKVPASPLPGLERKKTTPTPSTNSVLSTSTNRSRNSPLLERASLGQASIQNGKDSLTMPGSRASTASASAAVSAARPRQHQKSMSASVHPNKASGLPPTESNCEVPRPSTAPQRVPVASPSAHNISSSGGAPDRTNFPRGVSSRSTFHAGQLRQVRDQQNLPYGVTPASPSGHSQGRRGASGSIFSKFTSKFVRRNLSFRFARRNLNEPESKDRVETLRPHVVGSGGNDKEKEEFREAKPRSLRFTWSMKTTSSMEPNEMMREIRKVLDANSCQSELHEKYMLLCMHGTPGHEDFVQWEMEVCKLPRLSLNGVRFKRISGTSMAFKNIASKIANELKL

[21] = molecular target: MARK3 (human) (UniProt P27448)
[22] = molecular target: MKNK1 (human) (UniProt Q9BUB5)
[23] = molecular target: MKNK2 (human) (UniProt Q9HBH9)
Chain of MKNK2 (human) (Q9HBH9 whole entry, looked up): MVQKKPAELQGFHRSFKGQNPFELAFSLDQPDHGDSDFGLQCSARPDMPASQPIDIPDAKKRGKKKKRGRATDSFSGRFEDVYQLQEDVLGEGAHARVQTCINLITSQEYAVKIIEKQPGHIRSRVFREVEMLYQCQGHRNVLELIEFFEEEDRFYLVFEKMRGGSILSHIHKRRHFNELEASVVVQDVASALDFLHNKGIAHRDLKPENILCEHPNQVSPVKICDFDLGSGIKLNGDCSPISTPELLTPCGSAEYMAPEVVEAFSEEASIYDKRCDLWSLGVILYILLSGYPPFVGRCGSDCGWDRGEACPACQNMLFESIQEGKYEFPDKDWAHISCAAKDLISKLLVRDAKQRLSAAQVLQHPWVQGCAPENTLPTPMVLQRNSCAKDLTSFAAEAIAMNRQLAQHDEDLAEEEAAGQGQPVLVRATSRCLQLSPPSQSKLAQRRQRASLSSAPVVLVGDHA

[24] = molecular target: NEK2 (human) (UniProt P51955)
Chain of NEK2 (human) (P51955 whole entry, looked up): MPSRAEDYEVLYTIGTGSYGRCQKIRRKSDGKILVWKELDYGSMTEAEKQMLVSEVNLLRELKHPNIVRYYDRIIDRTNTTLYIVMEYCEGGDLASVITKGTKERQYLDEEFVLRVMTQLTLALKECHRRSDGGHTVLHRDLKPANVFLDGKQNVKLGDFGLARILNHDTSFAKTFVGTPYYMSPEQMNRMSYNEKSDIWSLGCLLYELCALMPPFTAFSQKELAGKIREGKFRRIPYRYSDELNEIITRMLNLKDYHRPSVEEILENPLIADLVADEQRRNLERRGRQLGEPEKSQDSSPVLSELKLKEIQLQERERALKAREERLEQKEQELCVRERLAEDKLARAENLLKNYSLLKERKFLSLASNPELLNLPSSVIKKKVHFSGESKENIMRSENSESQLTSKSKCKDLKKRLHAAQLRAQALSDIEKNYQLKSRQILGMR

[25] = molecular target: NEK6 (human) (UniProt Q9HC98)
[26] = molecular target: NTRK1 (human) (UniProt P04629)
[27] = molecular target: NUAK1 (human) (UniProt O60285)
[28] = molecular target: PAK4 (human) (UniProt O96013)
[29] = molecular target: PIM1 (human) (UniProt P11309)
[30] = molecular target: RPS6KA1 KD1 KD2 (human) (UniProt Q15418)
[31] = test system: RPS6KB1 (human), P23443 [T412E]
[32] = molecular target: STK11 CAB39 STRADA (human) (UniProt Q9Y376+Q7RTN6+Q15831)
[33] = molecular target: STK3 (human) (UniProt Q13188)
Chain of STK3 (human) (Q13188 whole entry, looked up): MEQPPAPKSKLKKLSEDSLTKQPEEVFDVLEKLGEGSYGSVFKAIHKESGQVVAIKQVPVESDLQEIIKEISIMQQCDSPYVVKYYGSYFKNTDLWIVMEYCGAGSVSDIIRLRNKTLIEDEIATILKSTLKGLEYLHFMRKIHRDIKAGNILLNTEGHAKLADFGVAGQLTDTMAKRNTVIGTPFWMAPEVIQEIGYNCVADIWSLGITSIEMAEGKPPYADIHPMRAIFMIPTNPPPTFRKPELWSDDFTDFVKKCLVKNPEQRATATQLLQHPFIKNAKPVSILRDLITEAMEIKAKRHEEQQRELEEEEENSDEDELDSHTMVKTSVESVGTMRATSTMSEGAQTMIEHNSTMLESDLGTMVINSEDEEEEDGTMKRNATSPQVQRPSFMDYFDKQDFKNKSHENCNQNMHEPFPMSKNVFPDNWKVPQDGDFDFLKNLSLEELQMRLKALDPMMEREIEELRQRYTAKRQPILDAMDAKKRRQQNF

[34] = molecular target: TBK1 (human) (UniProt Q9UHD2)
[35] = molecular target: TTK (human) (UniProt P33981)

residual activity ([1]; compound 1.0 µM): 96%
residual activity ([1]; compound 10.0 µM): 78%
residual activity ([2]; compound 1.0 µM): 97%
residual activity ([2]; compound 10.0 µM): 59%
residual activity ([3]; compound 1.0 µM): 90%
residual activity ([3]; compound 10.0 µM): 59%
residual activity ([4]; compound 1.0 µM): 105%
residual activity ([4]; compound 10.0 µM): 85%
residual activity ([5]; compound 1.0 µM): 21%
residual activity ([5]; compound 10.0 µM): 3%
residual activity ([6]; compound 1.0 µM): 15%
residual activity ([6]; compound 10.0 µM): 6%
residual activity ([7]; compound 1.0 µM): 106%
residual activity ([7]; compound 10.0 µM): 99%
residual activity ([8]; compound 1.0 µM): 94%
residual activity ([8]; compound 10.0 µM): 64%
residual activity ([9]; compound 1.0 µM): 89%
residual activity ([9]; compound 10.0 µM): 69%
residual activity ([10]; compound 1.0 µM): 88%
residual activity ([10]; compound 10.0 µM): 74%
residual activity ([11]; compound 1.0 µM): 97%
residual activity ([11]; compound 10.0 µM): 74%
residual activity ([12]; compound 1.0 µM): 85%
residual activity ([12]; compound 10.0 µM): 78%
residual activity ([13]; compound 1.0 µM): 81%
residual activity ([13]; compound 10.0 µM): 25%
residual activity ([14]; compound 1.0 µM): 106%
residual activity ([14]; compound 10.0 µM): 98%
residual activity ([15]; compound 1.0 µM): 97%
residual activity ([15]; compound 10.0 µM): 78%
residual activity ([16]; compound 1.0 µM): 93%
residual activity ([16]; compound 10.0 µM): 77%
residual activity ([17]; compound 1.0 µM): 99%
residual activity ([17]; compound 10.0 µM): 85%
residual activity ([18]; compound 1.0 µM): 93%
residual activity ([18]; compound 10.0 µM): 85%
residual activity ([19]; compound 1.0 µM): 89%
residual activity ([19]; compound 10.0 µM): 78%
residual activity ([20]; compound 1.0 µM): 80%
residual activity ([20]; compound 10.0 µM): 83%
residual activity ([21]; compound 1.0 µM): 94%
residual activity ([21]; compound 10.0 µM): 71%
residual activity ([22]; compound 1.0 µM): 100%
residual activity ([22]; compound 10.0 µM): 84%
residual activity ([23]; compound 1.0 µM): 94%
residual activity ([23]; compound 10.0 µM): 58%
residual activity ([24]; compound 1.0 µM): 94%
residual activity ([24]; compound 10.0 µM): 80%
residual activity ([25]; compound 1.0 µM): 98%
residual activity ([25]; compound 10.0 µM): 94%
residual activity ([26]; compound 1.0 µM): 83%
residual activity ([26]; compound 10.0 µM): 89%
residual activity ([27]; compound 1.0 µM): 92%
residual activity ([27]; compound 10.0 µM): 78%
residual activity ([28]; compound 1.0 µM): 89%
residual activity ([28]; compound 10.0 µM): 54%
residual activity ([29]; compound 1.0 µM): 70%
residual activity ([29]; compound 10.0 µM): 18%
residual activity ([30]; compound 1.0 µM): 88%
residual activity ([30]; compound 10.0 µM): 33%
residual activity ([31]; compound 1.0 µM): 96%
residual activity ([31]; compound 10.0 µM): 64%
residual activity ([32]; compound 1.0 µM): 80%
residual activity ([32]; compound 10.0 µM): 59%
residual activity ([33]; compound 1.0 µM): 98%
residual activity ([33]; compound 10.0 µM): 75%
residual activity ([34]; compound 1.0 µM): 87%
residual activity ([34]; compound 10.0 µM): 63%
residual activity ([35]; compound 1.0 µM): 79%
residual activity ([35]; compound 10.0 µM): 51%
SMILES: NC(=O)c1ccc(-c2ccc(Oc3cncc4sc(-c5nn[nH]n5)cc34)cc2)cc1
